Values of other authors as cited in patent US20240156749A1, “Pre And Post Natal Compositions Including Carotenoids” (Maravilla, LLC, priority 2022, published 2024).

System: oxygen-induced retinopathy
Settings: mouse model of retinopathy of prematurity; prenatal supplementation

SMILES: CC1=C(/C=C/C(C)=C/C=C/C(C)=C/C=C/C=C(C)/C=C/C=C(C)/C=C/C2=C(C)C[C@@H](O)CC2(C)C)C(C)(C)C[C@H](O)C1 [zeaxanthin]
- inhibition of oxygen-induced retinopathy: significantly inhibits oxygen-induced retinopathy

SMILES: CC1=C[C@H](O)CC(C)(C)[C@H]1/C=C/C(C)=C/C=C/C(C)=C/C=C/C=C(C)/C=C/C=C(C)/C=C/C1=C(C)C[C@@H](O)CC1(C)C [lutein]
- inhibition of oxygen-induced retinopathy: significantly inhibits oxygen-induced retinopathy
